Tests used:
[1] = stability of the salt (dosage form, drying and milling, drug substance); format: physicochemical
Source text: (§1) The problem of selecting a pharmaceutically acceptable salt form for 3-ethyl-5-[5-(4-ethylpiperazin-1-ylsulphonyl)-2-(2-methoxyethoxy) pyridin-3-yl]-2-(pyridin-2-yl)methyl-2,6-dihydro-7H-pyrazolo[4,3-d]pyrimidin-7-one has been solved by the surprising finding that the anhydrous para-toluene sulphonate salt of formula (I) meets the above criteria for a pharmaceutically acceptable salt. […] This is particularly surprising as initial predictions would indicate that the toslyate salt would form a hydrate, especially given the fact that the besylate salt and other salts investigated hydrated as predicted.

[2] = investigation of hydrate and polymorph formation of salts; format: physicochemical; details: for formation of crystalline hydrates: under a range of conditions
Source text: Hydrated salts can provide particular issues in processing, especially during for example the milling and/or drying stages. It has been disclosed that the tendency of organic molecules to hydrate can be predicted from their molecular structure, “Hydration in organic crystals: prediction from molecular structure”, Desiraju, Gautam R. Sch. Chem., Univ. Hyderabad, Hyderabad, 500 134, India. J. Chem. Soc., Chem. Commun. (1991), Issue 6, 426-8. CODEN: JCCCAT; ISSN: 0022-4936. (EN) CAN 114:237859. […] Several of the salts investigated form hydrates.
as §1
4-{6-Ethoxy-5-[3-ethyl-6,7-dihydro-7-oxo-2-(2-pyridylmethyl)-2H-pyrazolo[4,3-d]pyrimidin-5-yl]-3-pyridylsulfonyl}1-ethylpiperazine (100 g, 0.16 mol) was heated in 2-butanone/6.0% water (600 mL) to 50° C. yielding a pale yellow solution. The reaction mixture was heated to azetropically distil of 160 ml of solvent to remove water. The distilled solution was warmed to 60° C. and the acid solution of p-toluenesulfonic acid monohydrate (31.11 g, 0.16 mol) dissolved in 2-butanone (140 mL) was added over an hour. During the addition of the acid slow crystallisation was observed. The reaction mixture was slowly cooled from 60° C. to 0-5° C. over three hours, and stirred for a further hour, then filtered off the solid, washed with 2-butanone (200 mL) and dried under vacuum at 50° C. to afford the title compound (116 g, 93.7%) as a white solid. Mpt 240° C. (DMSOd6): 1.20 (6H, m), 2.23 (3H, st), 2.75 (2H, m), 2.97 (2H, q), 3.18 (4H, m), 3.35 (3H, s), 3.55 (2H, m), 3.68 (2H, m), 3.83 (2H, m), 4.59 (2H, m), 5.70 (2H, s), 7.08 (2H, d), 7.20 (1H, d), 7.34 (1H, m), 7.43 (2H, d), 7.80 (1H, m), 8.35 (1H, d), 8.70 (1H, d), 8.74 (1H, d). […] Mpt quoted +/−5° C. preferably +/−2° C. […] Additional experiments have shown that on re-slurrying in a mixture of methyl ethyl ketone and water these further polymorphs can be converted to the compound of Example 1.

SMILES | drug substance stability profile [1] | physical dosage form stability [1] | stability during drying and milling processes [1] | formation of crystalline hydrates [2] | further polymorphs detected via differential scanning calorimetry (DSC) ([2]; under certain conditions, convertible to Example 1 form by re-slurrying in methyl ethyl ketone and water) | number of anhydrous polymorphs [2]
CCc1c2nc(-c3cc(S(=O)(=O)N4CCN(CC)CC4)cnc3OCCOC)[nH]c(=O)c2nn1Cc1ccccn1 [Example 1] | desirable drug substance stability profile | good physical dosage form stability | demonstrates stability during drying and milling processes | does not appear to form crystalline hydrates | at least two further polymorphs | –
CCc1c2nc(-c3cc(S(=O)(=O)N4CCN(CC)CC4)cnc3OCCOC)[nH]c(=O)c2nn1Cc1ccccn1.O=S(=O)(O)c1ccccc1 [besylate salt, besylate salt of 3-ethyl-5-[5-(4-ethylpiperazin-1-ylsulphonyl)-2-(2-methoxyethoxy)pyridin-3-yl]-2-(pyridin-2-yl)methyl-2,6-dihydro-7H-pyrazolo [4,3-d]pyrimidin-7-one, reference compound] | – | – | – | a hydrated polymorph of the besylate salt is indeed formed | – | at least 5
